# According to US9186360B2, “Treatment of respiratory disorders using TRPA1 antagonists” (GLENMARK PHARMACEUTICALS S.A., priority 2011, dated 2015):
# pIC50: −log10 of the molar value.
# Columns and labels:
# [1] = tested on: ovalbumin sensitized Brown Norway rats; experiment: Ovalbumin asthma model in Brown Norway rats (Example 5); format: in vivo, rat; conditions: i.t. 1 hour before ovalbumin challenge, BAL 48 hours; dose dependent
# Experimental: Male BN rats were sensitized subcutaneously (s.c.) on day 0, 14 and 21 with 0.5 ml solution containing 20 μg/ml ovalbumin (Ova) and 40 mg/ml aluminum hydroxide. Simultaneously the animals were injected intraperitoneally (i.p.) with 0.25 ml of B. pertussis vaccine/rat containing 4×10^8 heat killed bacilli/ml. The rats were challenged with 1% aerosolized ovalbumin on Day 28 following sensitization.
# Test compounds were triturated and volume was made up with Normal Saline (0.9% NaCl). Animals were administered TRPA1 antagonists (Compound 52, Compound 73, Compound 84, Compound 90 and Compound 92) intra-tracheally (i.t.) 1 hour and fluticasone 24 hours and 1 hour before ovalbumin challenge. Animals were sacrificed 48 hours after ovalbumin challenge.
# BAL was performed at approximately 48 hours after ovalbumin challenge and the pooled BAL was used to determined total number of cells and for cell differential study (according to Example 2).
# The total number of eosinophils in each BAL sample and % inhibition of eosinophils were calculated according to Example 3
# The data was statistically evaluated by ANOVA followed by Dunnett's multiple comparisons test.
# human TRPV4 = human TRPV4 (Homo sapiens (Human), UniProt Q9HBA0); experiment: Radiometric calcium selectivity assay, CHO cells expressing human TRPV4 (4α-phorbol 12,13-didecanoate); format: cell-based; conditions: read-out: IC50 values hTRPV4
# Experimental: (§1) For selectivity screening, CHO cells stably expressing human TRPV1, human TRPV3, human TRPV4, or human TRPM8 were generated in-house and maintained in DMEM F-12 supplemented with 10% FBS and G418. All the cell types were cultured at 37° C. in humidified air containing 5% CO2. Radiometric calcium assay was performed as described above with some minor modifications. Assay was carried out in total volume of 200 μl at 30° C. (for TRPV1), 32° C. (for TRPV3) and 25° C. (for TRPV4 and TRPM8). Agonists used for selectivity screening of the different TRPs are: Capsaicin for TRPV1,2-aminoethoxydiphenyl borate for TRPV3, 4α-phorbol 12,13-didecanoate for TRPV4 and Icilin for TRPM8. After 2-5 minutes of agonist treatment, drug was washed and lysed in lysis buffer as mentioned above. Radioactivity in the lysate was measured in Packard Top count after addition of liquid scintillant.
# human TRPM8 = human TRPM8 (Homo sapiens (Human), UniProt Q7Z2W7); experiment: Radiometric calcium selectivity assay, CHO cells expressing human TRPM8 (icilin); format: cell-based; conditions: read-out: IC50 values hTRPM8
# Experimental: as §1
# human TRPV3 = human TRPV3 (Homo sapiens (Human), UniProt Q8NET8); experiment: Radiometric calcium selectivity assay, CHO cells expressing human TRPV3 (2-aminoethoxydiphenyl borate); format: cell-based; conditions: read-out: IC50 values hTRPV3
# Experimental: as §1
# human TRPV1 = human TRPV1 (Homo sapiens (Human), UniProt Q8NER1); experiment: Radiometric calcium selectivity assay, CHO cells expressing human TRPV1 (capsaicin); format: cell-based; conditions: read-out: IC50 values hTRPV1
# Experimental: as §1
# human TRPA1 = human TRPA1 (Homo sapiens (Human), UniProt O75762); experiment: 45Calcium uptake assay, AITC induced, human TRPA1 expressing CHO cells; format: cell-based; conditions: AITC 30 micromolar, read-out: IC50 values hTRPA1
# Experimental: As contemplated herein, the IC50 value is measured by the following method. The inhibition of TRPA1 receptor activation is measured as inhibition of allylisothiocyanate (AITC) induced cellular uptake of radioactive calcium. Test solution of test compound is prepared in a suitable solvent using appropriate method. Human TRPA1 expressing CHO cells are grown in suitable medium. Cells are treated with test compounds followed by addition of AITC. Cells are washed and lysed. Radioactivity in the lysate is measured in Packard Top count after addition of liquid scintillant. The concentration response curves for compounds are plotted as a % of maximal response obtained in the absence of test antagonist, and the IC50 values are calculated from such concentration response curve by nonlinear regression analysis using GraphPad PRISM software.
# The illustrative TRPA1 antagonists of the present invention were screened for TRPA1 activity according to a modified procedure described in Tóth, A. et al., Life Sciences 2003, 73, 487-498. The screening of the compounds can be carried out by other methods and procedures known to persons skilled in the art.
# Screening for TRPA1 Antagonist Using the 45Calcium Uptake Assay:
# The inhibition of TRPA1 receptor activation was measured as inhibition of allylisothiocyanate (AITC) induced cellular uptake of radioactive calcium. Test compounds were dissolved in DMSO to prepare 10 mM stock solution and then diluted using plain medium with 0.1% BSA and 1.8 mM CaCl2 to get desired concentration. Final concentration of DMSO in the reaction was 0.5% (v/v). Human TRPA1 expressing CHO cells were grown in F-12 DMEM medium with 10% FBS, 1% penicillin-streptomycin solution, and 400 μg/ml of G-418. Cells were seeded 24 h prior to the assay in 96 well plates so as to get ˜50,000 cells per well on the day of experiment. Cells were treated with test compounds for 10 min followed by addition of AITC at a final concentration of 30 micromolar and 5 μCi/ml 45Ca+2 for 3 min at 25° C. Cells were washed and lysed using buffer containing 1% Triton X-100, 0.1% deoxycholate and 0.1% SDS. Radioactivity in the lysate was measured in Packard Top count after addition of liquid scintillant.
# Concentration response curves were plotted as a % of maximal response obtained in the absence of test antagonist. IC50 value was calculated from concentration response curve by nonlinear regression analysis using GraphPad PRISM software.
# human TRPV3, sequence (Q8NET8 whole entry): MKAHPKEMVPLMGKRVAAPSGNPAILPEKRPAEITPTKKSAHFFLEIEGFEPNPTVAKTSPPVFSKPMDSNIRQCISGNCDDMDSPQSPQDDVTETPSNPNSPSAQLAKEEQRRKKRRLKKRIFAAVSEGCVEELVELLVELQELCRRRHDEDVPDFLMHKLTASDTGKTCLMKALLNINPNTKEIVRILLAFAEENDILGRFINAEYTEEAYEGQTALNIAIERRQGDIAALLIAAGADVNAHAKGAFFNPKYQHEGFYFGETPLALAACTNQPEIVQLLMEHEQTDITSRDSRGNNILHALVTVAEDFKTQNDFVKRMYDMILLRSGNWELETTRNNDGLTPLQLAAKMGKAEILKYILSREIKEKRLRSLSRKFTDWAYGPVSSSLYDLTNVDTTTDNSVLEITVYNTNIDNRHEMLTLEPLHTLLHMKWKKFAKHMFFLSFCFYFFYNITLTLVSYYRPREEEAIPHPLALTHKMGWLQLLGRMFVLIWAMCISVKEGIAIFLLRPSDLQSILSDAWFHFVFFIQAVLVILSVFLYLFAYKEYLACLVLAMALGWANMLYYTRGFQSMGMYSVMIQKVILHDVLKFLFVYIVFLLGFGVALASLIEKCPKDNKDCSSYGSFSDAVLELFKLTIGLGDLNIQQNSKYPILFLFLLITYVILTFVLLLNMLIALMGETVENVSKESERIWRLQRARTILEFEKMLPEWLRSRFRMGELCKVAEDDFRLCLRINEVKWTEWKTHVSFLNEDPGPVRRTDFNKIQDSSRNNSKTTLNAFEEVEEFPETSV
# human TRPV1, sequence (Q8NER1 whole entry): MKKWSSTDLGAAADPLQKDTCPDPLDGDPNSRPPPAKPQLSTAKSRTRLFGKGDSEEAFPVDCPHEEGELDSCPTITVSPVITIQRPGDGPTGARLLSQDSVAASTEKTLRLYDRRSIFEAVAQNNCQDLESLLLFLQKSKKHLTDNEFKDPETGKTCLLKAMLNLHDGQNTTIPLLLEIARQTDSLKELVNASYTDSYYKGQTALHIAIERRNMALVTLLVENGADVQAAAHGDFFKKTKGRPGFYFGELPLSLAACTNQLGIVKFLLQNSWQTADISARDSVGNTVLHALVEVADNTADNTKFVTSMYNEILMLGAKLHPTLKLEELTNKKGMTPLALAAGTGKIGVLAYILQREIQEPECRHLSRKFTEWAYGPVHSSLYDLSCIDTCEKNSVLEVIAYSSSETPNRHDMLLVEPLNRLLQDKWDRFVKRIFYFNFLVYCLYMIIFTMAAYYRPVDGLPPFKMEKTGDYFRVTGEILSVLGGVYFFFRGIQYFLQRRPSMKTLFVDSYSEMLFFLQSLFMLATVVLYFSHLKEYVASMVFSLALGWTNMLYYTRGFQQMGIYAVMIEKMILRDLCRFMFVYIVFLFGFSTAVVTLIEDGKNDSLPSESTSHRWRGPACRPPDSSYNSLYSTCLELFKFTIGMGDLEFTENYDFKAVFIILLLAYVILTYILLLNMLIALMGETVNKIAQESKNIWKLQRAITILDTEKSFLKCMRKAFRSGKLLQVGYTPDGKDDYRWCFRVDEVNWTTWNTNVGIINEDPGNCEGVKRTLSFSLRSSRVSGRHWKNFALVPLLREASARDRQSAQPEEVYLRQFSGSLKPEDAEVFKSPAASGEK
# human TRPM8, sequence (Q7Z2W7 whole entry): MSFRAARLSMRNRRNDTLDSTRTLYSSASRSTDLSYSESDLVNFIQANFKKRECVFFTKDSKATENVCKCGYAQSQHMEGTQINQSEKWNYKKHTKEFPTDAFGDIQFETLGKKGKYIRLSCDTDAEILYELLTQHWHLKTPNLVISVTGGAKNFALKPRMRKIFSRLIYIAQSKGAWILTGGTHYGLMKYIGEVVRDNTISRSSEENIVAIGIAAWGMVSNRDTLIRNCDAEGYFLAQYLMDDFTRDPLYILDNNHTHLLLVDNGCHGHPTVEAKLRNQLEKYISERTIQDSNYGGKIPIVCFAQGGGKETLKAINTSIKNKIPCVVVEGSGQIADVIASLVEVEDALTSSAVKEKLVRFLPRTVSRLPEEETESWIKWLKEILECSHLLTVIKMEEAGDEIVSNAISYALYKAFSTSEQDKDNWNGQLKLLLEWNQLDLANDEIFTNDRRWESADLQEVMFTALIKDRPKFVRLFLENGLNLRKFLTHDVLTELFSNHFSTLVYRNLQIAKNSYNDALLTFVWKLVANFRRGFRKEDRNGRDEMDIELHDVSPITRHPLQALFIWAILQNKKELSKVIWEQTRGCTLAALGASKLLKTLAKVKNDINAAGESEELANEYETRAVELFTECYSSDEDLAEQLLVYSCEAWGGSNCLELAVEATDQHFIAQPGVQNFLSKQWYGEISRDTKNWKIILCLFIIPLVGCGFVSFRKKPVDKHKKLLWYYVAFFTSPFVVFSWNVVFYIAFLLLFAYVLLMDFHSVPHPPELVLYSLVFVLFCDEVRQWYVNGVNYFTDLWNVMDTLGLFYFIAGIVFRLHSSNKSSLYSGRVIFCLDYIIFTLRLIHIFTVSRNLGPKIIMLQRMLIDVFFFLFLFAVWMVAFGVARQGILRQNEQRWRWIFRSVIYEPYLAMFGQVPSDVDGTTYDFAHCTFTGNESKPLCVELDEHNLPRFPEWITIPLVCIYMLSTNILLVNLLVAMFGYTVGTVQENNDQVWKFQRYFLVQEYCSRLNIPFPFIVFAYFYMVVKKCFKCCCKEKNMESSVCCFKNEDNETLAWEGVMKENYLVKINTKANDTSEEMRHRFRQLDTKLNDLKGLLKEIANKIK
# human TRPA1, sequence (O75762 whole entry): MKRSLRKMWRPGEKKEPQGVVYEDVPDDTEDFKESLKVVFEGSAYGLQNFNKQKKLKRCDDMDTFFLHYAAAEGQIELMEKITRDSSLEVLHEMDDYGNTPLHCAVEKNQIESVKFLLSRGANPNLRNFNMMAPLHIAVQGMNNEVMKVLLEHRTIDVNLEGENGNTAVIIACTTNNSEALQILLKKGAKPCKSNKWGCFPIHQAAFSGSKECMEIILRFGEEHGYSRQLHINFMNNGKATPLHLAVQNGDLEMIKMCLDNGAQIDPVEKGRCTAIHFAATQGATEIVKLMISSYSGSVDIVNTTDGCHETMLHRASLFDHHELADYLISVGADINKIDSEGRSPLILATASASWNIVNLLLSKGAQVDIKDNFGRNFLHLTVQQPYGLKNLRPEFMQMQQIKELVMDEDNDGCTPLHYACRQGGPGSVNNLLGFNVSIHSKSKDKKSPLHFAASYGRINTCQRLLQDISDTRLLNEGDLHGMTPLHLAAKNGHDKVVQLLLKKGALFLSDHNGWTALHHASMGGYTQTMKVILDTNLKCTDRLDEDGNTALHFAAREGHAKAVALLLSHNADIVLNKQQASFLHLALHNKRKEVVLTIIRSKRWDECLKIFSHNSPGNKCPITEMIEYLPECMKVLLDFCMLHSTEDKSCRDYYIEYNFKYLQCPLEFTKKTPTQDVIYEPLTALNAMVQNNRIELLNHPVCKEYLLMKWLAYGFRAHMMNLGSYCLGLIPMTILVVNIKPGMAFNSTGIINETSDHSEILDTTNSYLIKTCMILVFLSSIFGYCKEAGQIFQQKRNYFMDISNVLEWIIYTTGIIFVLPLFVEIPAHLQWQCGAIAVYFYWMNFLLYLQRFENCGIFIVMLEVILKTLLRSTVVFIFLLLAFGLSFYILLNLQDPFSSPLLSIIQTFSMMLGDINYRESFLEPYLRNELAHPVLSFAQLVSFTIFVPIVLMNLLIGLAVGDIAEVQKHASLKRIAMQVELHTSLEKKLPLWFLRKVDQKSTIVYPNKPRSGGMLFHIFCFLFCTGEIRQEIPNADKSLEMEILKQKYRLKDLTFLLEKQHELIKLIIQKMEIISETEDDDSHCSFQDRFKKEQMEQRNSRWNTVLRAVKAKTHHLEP
# human TRPV4, sequence (Q9HBA0 whole entry): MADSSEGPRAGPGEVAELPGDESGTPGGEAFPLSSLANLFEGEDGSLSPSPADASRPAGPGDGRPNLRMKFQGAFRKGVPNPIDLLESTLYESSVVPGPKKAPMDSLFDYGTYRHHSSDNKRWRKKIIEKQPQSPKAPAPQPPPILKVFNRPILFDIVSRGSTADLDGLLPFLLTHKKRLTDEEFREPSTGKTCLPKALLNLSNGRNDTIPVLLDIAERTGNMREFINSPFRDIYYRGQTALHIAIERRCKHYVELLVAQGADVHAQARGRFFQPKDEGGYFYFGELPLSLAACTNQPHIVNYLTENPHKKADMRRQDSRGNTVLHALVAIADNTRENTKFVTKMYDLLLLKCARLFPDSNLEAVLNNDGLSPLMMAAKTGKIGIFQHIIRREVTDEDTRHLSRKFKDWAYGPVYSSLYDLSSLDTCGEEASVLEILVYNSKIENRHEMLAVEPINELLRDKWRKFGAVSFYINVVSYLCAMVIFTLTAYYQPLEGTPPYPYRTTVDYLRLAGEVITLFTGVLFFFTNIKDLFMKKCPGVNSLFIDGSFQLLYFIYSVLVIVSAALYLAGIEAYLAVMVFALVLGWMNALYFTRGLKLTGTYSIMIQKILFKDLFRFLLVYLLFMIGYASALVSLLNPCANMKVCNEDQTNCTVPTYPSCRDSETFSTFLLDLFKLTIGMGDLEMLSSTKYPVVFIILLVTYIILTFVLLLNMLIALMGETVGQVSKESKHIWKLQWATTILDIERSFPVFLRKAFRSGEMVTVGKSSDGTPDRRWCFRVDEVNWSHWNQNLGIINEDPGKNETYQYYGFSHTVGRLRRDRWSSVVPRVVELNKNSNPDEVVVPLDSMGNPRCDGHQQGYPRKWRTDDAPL
SMILES,pulmonary eosinophilia [1],pIC50 (human TRPV4),pIC50 (human TRPM8),pIC50 (human TRPV3),pIC50 (human TRPV1),pIC50 (human TRPA1)
Cn1c(=O)c2c(CC(=O)Nc3nc(-c4ccc(F)c(C(F)(F)F)c4F)cs3)onc2n(C)c1=O [Compound 92],significant inhibition,< 6.00,< 5.00,< 6.00,< 5.00,–
Cn1c(=O)c2c(CC(=O)Nc3nc(-c4ccc(Cl)c(C(F)(F)F)c4)cs3)cccc2n(C)c1=O [Compound 21],–,6.28,< 5.00,< 5.00,< 6.00,7.32
Cc1oc2c(c1CC(=O)Nc1nc(-c3cc(Cl)c(OCC(C)C)c(Cl)c3)cs1)c(=O)n(C)c(=O)n2C [Compound 75],–,< 5.00,< 5.00,< 5.00,< 5.00,8.48
Cc1oc2c(c1CC(=O)Nc1nc(-c3ccc(OC(F)(F)F)c(F)c3)cs1)c(=O)n(C)c(=O)n2C [Compound 70],–,< 6.00,< 5.00,< 6.00,< 5.00,7.90
Cn1c(=O)c2c(ccn2CC(=O)Nc2nc(-c3cc(Cl)c(OCCC(F)(F)F)c(Cl)c3)cs2)n(C)c1=O [Compound 35],–,< 5.00,< 5.00,< 5.00,< 5.00,7.74
Cn1c(=O)c2c(CC(=O)Nc3nc(-c4ccc(C(C)(C)C)cc4)cs3)cccc2n(C)c1=O [Compound 12],–,< 6.00,< 5.00,< 5.00,< 5.00,7.29
Cn1c(=O)c2c(CC(=O)Nc3nc(-c4cccc(C(F)(F)F)c4)cs3)cccc2n(C)c1=O [Compound 7],–,5.73,< 5.00,5.68,< 5.00,7.32
Cn1c(=O)c2c(CC(=O)Nc3nc(-c4cc(F)c(OCC(F)(F)F)c(F)c4)cs3)ccnc2n(C)c1=O [Compound 86],–,< 6.00,< 5.00,< 5.00,< 5.00,8.16
CC(C)c1sc2c(c1CC(=O)Nc1nc(-c3ccc(C(F)(F)F)c(F)c3)cs1)c(=O)n(C)c(=O)n2C [Compound 46],–,< 5.00,< 6.00,< 5.00,< 5.00,7.38
Cc1ccc(-c2csc(NC(=O)Cc3cccc4c3c(=O)n(C)c(=O)n4C)n2)cc1 [Compound 6],–,< 6.00,< 5.00,< 5.00,< 5.00,7.01
Cn1nc2c(c1CC(=O)Nc1nc(-c3ccc(OC(F)(F)F)c(F)c3)cs1)c(=O)n(C)c(=O)n2C [Compound 41],–,< 6.00,< 5.00,< 5.00,< 5.00,7.96
Cn1c(=O)c2c(CC(=O)Nc3nc(-c4cccc(F)c4F)cs3)cccc2n(C)c1=O [Compound 27],–,< 5.00,< 5.00,< 5.00,< 5.00,7.18
Cn1c(=O)c2c(CC(=O)Nc3nc(-c4cc(F)c(CCC(F)(F)F)c(F)c4)cs3)coc2n(C)c1=O [Compound 56],–,< 6.00,< 5.00,< 5.00,< 5.00,8.47
Cn1c(=O)c2c(CC(=O)Nc3nc(-c4cc(Cl)c(OCC(F)(F)F)c(Cl)c4)cs3)coc2n(C)c1=O [Compound 57],–,< 6.00,< 5.00,< 5.00,< 5.00,8.84
Cc1oc2c(c1CC(=O)Nc1nc(-c3cc(F)c(C(F)(F)F)c(F)c3)cs1)c(=O)n(C)c(=O)n2C [Compound 72],–,< 6.00,< 5.00,< 6.00,< 5.00,8.38
Cc1oc2c(c1CC(=O)Nc1nc(-c3ccc(Cl)c(C(F)(F)F)c3)cs1)c(=O)n(C)c(=O)n2C [Compound 71],–,< 5.00,< 5.00,< 6.00,< 5.00,8.50
Cn1c(=O)c2c(CC(=O)Nc3nc(-c4ccc(C(F)(F)F)cc4)cs3)cccc2n(C)c1=O [Compound 11],–,5.82,< 5.00,< 5.00,< 5.00,7.33
Cn1c(=O)c2c(CC(=O)Nc3nc(-c4ccc(C(F)(F)F)c(F)c4F)cs3)cccc2n(C)c1=O [Compound 28],–,6.04,< 5.00,< 6.00,< 5.00,8.19
Cn1nc2c(c1CC(=O)Nc1nc(-c3ccc(C(F)(F)F)cc3)cs1)c(=O)n(C)c(=O)n2C [Compound 39],–,< 6.00,< 5.00,< 5.00,< 5.00,7.58
Cn1c(=O)c2c(CC(=O)Nc3nc(-c4cc(F)c(OCC(F)(F)F)c(F)c4)cs3)cccc2n(C)c1=O [Compound 32],–,< 6.00,< 5.00,< 5.00,< 5.00,8.22
Cn1c(=O)c2c(CC(=O)Nc3nc(-c4cccc(Cl)c4F)cs3)cccc2n(C)c1=O [Compound 25],–,< 6.00,< 5.00,< 6.00,< 5.00,7.23
CCc1ccc(-c2csc(NC(=O)Cc3cccc4c3c(=O)n(C)c(=O)n4C)n2)cc1 [Compound 17],–,< 6.00,< 5.00,< 5.00,< 5.00,7.25
Cn1c(=O)c2c(cnn2CC(=O)Nc2nc(-c3cc(F)c(OCC4CCC4)c(F)c3)cs2)n(C)c1=O [Compound 43],–,< 6.00,< 5.00,< 5.00,< 5.00,7.74
Cn1c(=O)c2c(CC(=O)Nc3nc(-c4ccc(F)c(Cl)c4)cs3)cccc2n(C)c1=O [Compound 15],–,< 6.00,< 5.00,< 6.00,< 5.00,7.27
Cn1c(=O)c2c(CC(=O)Nc3nc(-c4cc(F)cc(C(F)(F)F)c4)cs3)nsc2n(C)c1=O [Compound 83],–,6.63,< 5.00,< 6.00,< 5.00,8.36
